Blank lines part the entries; values can stand above or below the molecule they belong to. Ends that are not written are not given here.
Columns and labels:
[1] = biological target: T1, Hub1 (Saccharomyces cerevisiae, UniProt Q6Q546)
Procedure: The NMR measurements were carried out at 300 K on an ultrashielded 600 MHz Bruker AVANCE 3 (Bruker Corporation, Billerica, MA, USA) spectrometer equipped with a liquid nitrogen cryogenic system. Uniform ^15N isotope labeling was achieved by the expression of the protein in the M9 minimal media containing ^15NH4Cl as the sole nitrogen source. The NMR buffer for ^15N-labeled protein was PBS pH 7.4 with 5 mM DTT (dithiothreitol). To provide a lock signal, 10% (v/v) of D2O was added to the samples. Water suppression was carried out using the WATERGATE sequence. Stock solutions of the inhibitors used for titration were prepared in DMSO-d6. The binding of small molecule fragments towards Hub1 was measured with the 2D SOFAST-HMQC spectra of the ^15N-labeled Hub1 recombinant protein in 3-mm NMR capillaries. For the preliminary screening, the mixture of three compounds was added in a molar ratio compound to protein 1:10. Then the ^1H and SOFAST-HMQC spectrum was recorded and compared with the reference spectrum of the protein Hub1 titrated with a suitable amount of DMSO. When any activity occurred, all compounds which were in the mixture were tested one by one. The individual spectra were recorded in 10-fold excess of the inhibitor either by ^1H NMR or SOFAST-HMQC. […] The spectra were processed with TopSpin 3.2 software (Bruker Corporation, Billerica, MA, USA).

[2] = biological target: T1, Hub1; experiment: biochemical
Procedure: Hub1 buffered in 20 mM HEPES, pH 7.5, 100 mM NaCl, 0.05% Tween-20 was labeled using His-Tag Labelling Kit RED-tris-NTA 2nd generation (MO-L018, NanoTemper, Munich, Germany), according to the manufacturer’s protocol. […] The final concentration of Hub1 was 50 nM. All measurements were calculated on a Monolith NT.115 instrument (NanoTemper, Munich, Germany) using the standard capillaries at the excitation power of 60% and the medium MST power in duplicates. The results were analyzed in GraphPad Prism software (GraphPad Prism version 8.0.0 for Windows, GraphPad Software, San Diego, CA, USA).

[3] = biological target: T2, Snu66 peptide-14 (Saccharomyces cerevisiae); experiment: MST
T2 chain: TNEIREKLGM

T1 sequence (Q6Q546 whole entry, the tested form may be a part): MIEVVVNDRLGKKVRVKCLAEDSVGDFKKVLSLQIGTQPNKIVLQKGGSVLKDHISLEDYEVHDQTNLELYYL

Molecule: IREKLGM [Peptide-11]
- changes in chemical shifts (in words) ([1]; 1H NMR, Hub1:peptide ratio 1:1 to 1:10, 300 K): changes in chemical shifts in the aliphatic (δ = 0.04 ppm) and aromatic (δ = 6.5 ppm) regions
- chemical shift changes, aliphatic region (δ) ([1]; 1H NMR, Hub1:peptide ratio 1:1 to 1:10, 300 K, aliphatic region): 0.04 ppm
- buffer pH after titration ([1]; after titration of Hub1 with peptide): 6.7
- binding to Hub1 by MST (in words) ([2]; MST, labeled Hub1 50 nM, peptide […] to 250 µM, pH 7.5, duplicates): no significant binding events

Molecule: TNEIREKLGM [Peptide-14]
- Kd [2]: 14 ± 8.3 µM

- Kd [3]: 14 µM
B1: Hub1 1-73 (protein)
chain: MIEVVCNDRLGKKVRVKCNTDDTIGDLKKLIAAQTGTRWNKIVLKKWYTIFKDHVSLGDYEIHDGMNLELYYQ
